Source: US20250034579A1, “METHODS AND COMPOSITIONS FOR GENETICALLY MODIFYING HUMAN GUT MICROBES” (Cornell University, priority 2021, published 2025)

What was measured:
[1] = test system: Bacteroidia (Prevotella and Bacteroides) microbes; experiment: Antibiotics test of Gram-negative Bacteroidia strains on agar plates; format: cell-based; conditions: 66 Bacteroidia strains; TSAB plates with 15 μg/mL thiamphenicol (or MICs)
[2] = SPF mice; drinking water with thiamphenicol 15 μg/ml and erythromycin 10 μg/ml
[3] = test system: Erysipelotrichaceae microbes; format: cell-based; conditions: in vitro consortium of 2 Bacteroides and 7 Erysipelotrichaceae; DCA at 0, 250 and 500 μM
[4] = test system: Bacteroides and Erysipelotrichaceae microbes; experiment: Growth curve of bacteria in the presence of bile acids (OD600); format: cell-based; conditions: 500 μM bile acid, DMSO control; 2 Bacteroides, 7 Erysipelotrichaceae
Method: Bacteroides (Bacteroides fragilis 3112 (Bac1) and Bacteroides vulgatus ATCC 8482 (Bac2)) and Erysipelotrichaceae (Clostridium ramosum ATCC 25554 (Ery1), Erysipelatoclostridium ramosum strain 113-1 (Ery2), Clostridium ramosum DSM 24812 (Ery3), Clostridium ramosum DSM 1402 (Ery4), HM-173 Clostridium innocuum 6_1_30 (Ery5), Clostridium innocuum DSM 22910 (Ery6) and Holdemania filiformis DSM 12042 (Ery7)) were streaked from a glycerol stock onto TSAB agar plates and incubated anaerobically for ˜ 24 h at 37° C. Three colonies were inoculated into 1 ml of Mega broth and were anaerobically cultured for overnight at 37° C. Cells were diluted 1,000-fold into Mega broth to reach late-log phase. Then 5 μL of the culture was resuspended in 145 μL broth, loaded into a 96-well plated, and incubated anaerobically at 37° C. in Multiskan Sky Microplate Spectrophotometer (Thermo Fisher Scientific). Four bile acids (CA, 7-oxoCA, DCA, and 3-oxoDCA, 500 μM each) were tested with their solvent DMSO as control. Optical densities at 600 nm (OD600) were recorded every 60 min until the cultures reached the stationary phase. Bacterial growth curves were performed in triplicate with each biological replicate deriving from a single colony.

CS(=O)(=O)c1ccc([C@@H](O)[C@@H](CO)NC(=O)C(Cl)Cl)cc1 [thiamphenicol]
resistance against thiamphenicol [1]: not resistant | accumulation of supplemented antibiotic in the feces [2]: ~5 pmol/mg

C[C@H](CCC(=O)O)[C@H]1CC[C@H]2[C@@H]3CC[C@@H]4C[C@H](O)CC[C@]4(C)[C@H]3C[C@H](O)[C@]12C [DCA, deoxycholic acid]
expansion of Erysipelotrichaceae microbes (relative fold change by qPCR) [3]: drives expansion | resistance of Erysipelotrichaceae microbes versus Bacteroides microbes (growth curve) [4]: more resistant

C[C@H](CCC(=O)O)[C@H]1CC[C@H]2[C@@H]3CC[C@@H]4CC(=O)CC[C@]4(C)[C@H]3C[C@H](O)[C@]12C [3-oxo DCA]
resistance of Erysipelotrichaceae microbes versus Bacteroides microbes (growth curve) [4]: more resistant
